Results published in patent US6440432B1, “Skin cosmetic compositions containing dextran or maltodextrin and a weak carboxylic acid” (Unilever Home & Personal Care USA, a division of Conopco, …, priority 1999, dated 2002).
Entries after “also recorded” stand apart in the source; their conditions may differ.

Tests used:
[1] = cited from earlier work
[2] = test system: contralateral nasolabial folds of subjects sensitive to glycolic acid; experiment: in-vivo sting test (sting/burn propensity and forced choice); details: for Effect on stinging/burning propensity of Base Formula A containing 8% glycolic acid (in words): substance added to the formulation, pH 3.8; for Effect on sting/irritation caused by weak carboxylic acids (in words, summary): summary of Examples 1-6
Excerpt: (§1) Procedure for in-vivo sting test: This was a randomized, double blind study where each subject evaluated one test formulation and a control formulation or two test formulations on contralateral nasolabial folds. […] A maximum of 20 qualified subjects (minimum of 15) were utilized in each subsequent test. One paired comparison was made on each testing day, with a minimum of 3 days between sting testing throughout the study. Subjects underwent a 15 second Ivory soap wash regime immediately prior to product testing for enhancing sting response. […] Study personnel then applied one test formulation and one control or test formulation simultaneously to the appropriate left/right test site, and gently but thoroughly rubbed in. Subjects compared the stinging potential of the two formulations, over a 7.5 minute period using a self-assessment questionnaire.
(§2) Sting/Burn Propensity: The degree of stinging/burning felt on the left and right inner cheek and crease of the nose was evaluated using the following scale at the times indicated in Tables below:
(§3) 0-no stinging/burning; 1-very slight stinging/burning; 2-slight stinging/burning; 3-moderate stinging/burning; 4-moderately high stinging/burning; 5-high stinging/burning; 6-extreme stinging/burning.
(§4) Determination of Statistical Significance: At each evaluation time point after baseline, the parametric paired t-test (two-tailed) was performed, to compare the extent of attribute change from baseline between each treatment comprising a paired comparison test, with subject acting as a block in these analyses. […] The test can be implemented using the SAS software procedure MEANS with the T and PRT options specified.
(§5) Statistical significance was determined at p≦0.1.

skin = details: LAREX publication Mar. 23, 1998; cited from earlier work
[3] = test system: procollagen I in neonatal human dermal fibroblasts; experiment: procollagen I production by fibroblasts (slot blot); assay type: cell-based; details: combination with glycolic acid
Excerpt: Collagen is a predominant skin protein. It is synthesized by fibroblasts in the dermis. The synthesis of collagen decreases with aging or photodamage. Collagen l is first made as a precursor molecule called Pro-collagen l. Increased production of procollagen 1 is a marker of an increased collagen level in response to a test compound application.
Method: Neonatal human dermal fibroblasts were purchased from Clonetics Corp., San Diego, Calif. All materials for cell culture were purchased from Life Technologies, NY. Cells (between passages 5-10) were seeded at a density of approximately 10,000/well in the inner 48 wells of a 96-well plate in DMEM (Dulbecco's Modified Eagle's Medium), high-glucose, supplemented with 2 mM L-glutamine, 10% fetal bovine serum, and antibiotic and antimycotic solutions. Cells were then grown to confluence for 2 days. At confluence, the medium was removed and cells were washed with serum-free DMEM, and each well dosed with 200 μl of a solution of a test compound in serum-free DMEM. Each dosing was replicated in the total of six wells. […]
For the analysis of procollagen I in the solutions, they were diluted in DMEM (approximately 20 μl sample in 200 μl DMEM). […] Percent increase was calculated as a ratio of optical density of cells treated with a test compound over control ×100.

[4] = test system: transglutaminase-K (Tgase K) in Normal Human keratinocytes; experiment: keratinocyte differentiation (transglutaminase absorbance / µg DNA); assay type: cell-based; details: combination with lactic acid
Excerpt: Keratinocytes, the major cell type in the epidermis, undergo a program of differentiation leading to formation of corneocytes which form the stratum corneum and provide a protective barrier against water loss and entry of harmful substances and pathogens. A prominent feature of keratinocyte differentiation is the formation of a highly insoluble, cross-linked envelope (CE) immediately beneath the keratinocyte plasma membrane. The production of keratinocyte CE is catalyzed by the enzyme transglutaminase-K (Tgase K) which cross-links certain precursor proteins in the cell. […] Therefore, agents that increase Tgase-K activity have the potential of providing benefits to the skin.
Method: Normal Human keratinocytes were seeded in 96-well plates at 4000 cells/well and grown in Keratinocyte Growth Medium (KGM) obtained from Clonetics Corp. Cells were treated with test compounds at various concentrations for 48 hours with an intermittent change of medium after 24 hrs. 6 replicate wells were used for each test. At the end of the incubation period, two parameters were measured on the cells—I. DNA and II. […]
I. DNA was measured using a method described by Rago et al Anal. Biochem 191:31-34,1990. […] Readings were then taken on Millipore Fluorescence Miicroplate Reader (ex/em 360/450 nm). Amount of DNA per well (α) was calculated using standards.
II. […] Absorbance was measured at 490nm (b). […]

[5] = test system: photodamaged skin on both forearms; experiment: 12-week bilateral comparison use test, clinical assessment of photodamaged skin; assay type: in vivo, human; details: summary statement
Experimental: Procedure: The study was a 12-week bilateral comparison use test of two formulations. […] At Baseline (week 0), week 4, 8 and 12, visual evaluation was conducted. Product assignment was randomized and balanced for left/right usage across the subject pool. Subjects were instructed to use the appropriate product to the left/right arms at home and applied approximately 1 gram twice daily for 12 weeks. A minimum of 15 qualified subjects per paired comparison completed the study. […] 0=none […] 4-6=moderate 7-9=severe The following paired comparisons were made: […] The Wilcoxon signed rank test, Pratt-Lehmann version, was used to statistically assess the magnitude of average change from baseline attributable to treatment with subject acting as a block in this analysis. In addition, to compare the extent of change from baseline between the two treatments within a cell, the nonparametric Wilcoxon signed-rank test, Pratt-Lehmann version, was also used.

[6] = test system: contralateral nasolabial folds of subjects sensitive to glycolic acid; details: in vivo, pH 3.8
Excerpt: as §1, §2, §3, §4, §5

Row | Compound | Effect on stinging/burning propensity of Base Formula A containing 8% glycolic acid (in words) [2] | Effect on sting/irritation caused by weak carboxylic acids (in words, summary) [2] | Effect on procollagen I levels (in words) [3] | further results
1 | CC(O)CC(=O)O (stereo not drawn) [beta-hydroxybutyric] | – | – | – | pKa [1]: 4.7
2 | C[C@]12CCC(=O)C=C1CC[C@@H]1[C@@H]2[C@@H](O)C[C@@]2(C)[C@H]1CC[C@]2(O)C(=O)CO [hydrocortisone, Hydrocortisone] | neither hydrocortisone nor arabinogalactan reduced the sting | did not reduce the sting caused by weak carboxylic acids | – | –
3 | Arabinogalactan | neither hydrocortisone nor arabinogalactan reduced the sting; also recorded: slightly enhanced the sting | does not have this effect; also recorded: did not reduce the sting caused by weak carboxylic acids | did not | Increase of exfoliation performance of a skin care lotion containing alpha hydroxy acid (skin): 80%; Irritation of the skin care lotion containing alpha hydroxy acid (in words) (skin): without increased irritation; Effect on keratinocyte differentiation (in words) [4]: did not
4 | Dextran | – | decrease irritation; also recorded: reduced the sting caused by weak acids | significant increase in procollagen l levels | Effect on anti-aging efficacy of hydroxy acids (in words) [5]: enhances the anti-aging efficacy of hydroxy acids; Effect on stinging/burning propensity of Base Formula B containing 8% glycolic acid (in words) [6]: reduced the stinging/burning propensity
5 | Maltodextrin | – | decrease irritation | – | –
